The results in this text go back to patent US9926275B2 (priority 2013, dated 2018).

In assay [1] the target is T1, CB1 receptor (Homo sapiens, UniProt P21554). In words: DiscoveRx HitHunter cAMP XS+ assay in cAMP Hunter cell line, allosteric modulation of CP55,940 response. Type of assay: cell-based. The note with it: for Emax: read-out: cAMP activity ECMax (%). On the procedure:
Once it was established that the cells were healthy and growing normally, cells were passaged from flasks using cell dissociation reagent buffer and seeded into white walled clear bottom 384-well microplates for compound profiling. For profiling, cells were seeded at a density of 10000 cells per well in a total volume of 20 μL and were allowed to adhere and recover overnight prior to compound addition. Cells were treated the following day using the protocols shown below. cAMP modulation was determined using the DiscoveRx HitHunter cAMP XS+ assay.
Media was aspirated from cells and replaced with 10 μL 1:1 HBSS/Hepes: cAMP XS+ Ab reagent. Agonist (CP55,940) dose curves were performed to determine the EC20 value for the testing with the compounds of the present technology. 5 μL of 4× agonist was added to each well with an equal concentration of vehicle present. EC20 agonist concentration was determined directly from agonist dose curve.
(§1) For allosteric determination, cells were preincubated with compound followed by agonist challenge at the EC20 concentration of the agonist. 5 μL of 4× compound was added to cells and incubated at 37° C. for 30 minutes. 5 μL of 4× EC20 agonist was added to cells and incubated at 37° C. for 30 minutes.
Signal Detection: After appropriate compound incubation, assay signal was generated through incubation with 20 μL cAMP XS+ED/CL lysis cocktail for one hour followed by incubation with 20 μL cAMP XS+EA reagent for three hours at room temperature. Microplates were read following signal generation with a PerkinElmer Envision™ instrument for chemiluminescent signal detection.
(§2) Data Analysis: Dose curves were plotted using GraphPad Prism or Activity Base. The percentage activity is calculated using the following formula: % Activity=100%×(1−(mean RLU of test sample−mean RLU of MAX control)/(mean RLU of vehicle control [EC20 for PAM]−mean RLU of MAXcontrol).
(§3) Agonist (CP55,940) dose curves were performed for the CNR1 PathHunter and cAMP Hunter cell lines. […] The cAMP assay was performed in the presence of 20 μM forskolin (EC80).
(§4) In Vitro Evaluation: The in vitro evaluation of the covalent allosteric modulators was performed using as described previously.

Assay [2] addresses T1, CB1 receptor. In words: β-arrestin recruitment in CNR1 PathHunter cell line, allosteric modulation of CP55,940 response. In kind it is cell-based. As to conditions: for Emax: read-out: β-arrestin activity EMax (%). The procedure:
as §1, §2, §3, §4
Background: Activated receptors often draw arrestin, which recruitment assays turn into a signal.

The mark [3] stands for this setting: Table 1, preincubation with compound, then CP55,940 challenge, 20 μM forskolin.
The mark [4] stands for this setting: Table 1, preincubation with compound, then CP55,940 challenge, 20 μM forskolin, read-out: cAMP EC50.
Where [5] appears, read: Table 1, CP55,940 as agonist, read-out: β-arrestin EC50.
Setting [6] is: Table 2, covalent allosteric modulators, read-out: cAMP activity EC50 (nm).
[7] abbreviates: Table 2, covalent allosteric modulators.
Where [8] appears, read: Table 2, covalent allosteric modulators, read-out: β-arrestin activity EC50 (nm).

T1 sequence (P21554 whole entry): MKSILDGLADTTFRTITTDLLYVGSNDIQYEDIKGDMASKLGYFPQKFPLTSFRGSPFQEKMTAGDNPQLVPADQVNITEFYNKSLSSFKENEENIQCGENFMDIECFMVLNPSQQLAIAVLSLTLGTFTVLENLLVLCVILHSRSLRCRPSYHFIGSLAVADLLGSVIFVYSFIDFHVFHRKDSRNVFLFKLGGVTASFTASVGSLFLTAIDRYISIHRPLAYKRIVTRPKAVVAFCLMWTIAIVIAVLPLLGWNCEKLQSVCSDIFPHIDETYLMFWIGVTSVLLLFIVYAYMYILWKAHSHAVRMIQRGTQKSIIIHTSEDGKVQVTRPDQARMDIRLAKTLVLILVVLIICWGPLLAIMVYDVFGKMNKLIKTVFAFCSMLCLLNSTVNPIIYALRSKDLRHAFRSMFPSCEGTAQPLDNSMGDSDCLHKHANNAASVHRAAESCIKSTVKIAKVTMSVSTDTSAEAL

Usually EC50 stands for the concentration that produces a half-maximal response. `Clc1ccc(-c2nnc(Nc3cccc(-c4cccc(N5CCCC5)n4)c3)o2)cc1` [Compound 45, 5-(4-Chlorophenyl)-N-(3-(6-(pyrrolidin-1-yl)pyridin-2-yl)phenyl)-1,3,4-oxadiazol-2-amine]: the cAMP % inhibition in assay [1] (setting [3]) amounted to 20%. Besides, the EC50 in assay [1] (setting [4]) is 4050 nM; in assay [2] (setting [5]), 3210 nM. The β-arrestin % inhibition in assay [2] (Table 1, CP55,940 as agonist) was found to be 70%.

Take `O=C(Nc1ccc(I)cc1)Nc1cccc(-c2cccc(N3CCCC3)n2)c1` [Compound 10b, 1-(4-Iodophenyl)-3-(3-(6-(pyrrolidin-1-yl)pyridin-2-yl)phenyl)urea]: the cAMP % inhibition in assay [1] (setting [3]) is recorded as 126%. In addition, the EC50 is 223 nM in assay [1] (setting [4]) and 27 nM in assay [2] (setting [5]). For the same molecule, in assay [2] (Table 1, CP55,940 as agonist), the β-arrestin % inhibition turned out to be 133%.

Take `Cc1cccc(NC(=O)Nc2cccc(-c3cccc(N4CCCC4)n3)c2)c1` [Compound 10o, 1-(3-(6-(Pyrrolidin-1-yl)pyridin-2-yl)phenyl)-3-(m-tolyl)urea]: the cAMP % inhibition in assay [1] (setting [3]) was determined as 65%. Also, the concentration for a half-maximal effect (EC50) was 483 nM in assay [1] (setting [4]) and 734 nM in assay [2] (setting [5]). Also, the β-arrestin % inhibition in assay [2] (Table 1, CP55,940 as agonist) is given as 125%.

With `COc1ccc(NC(=O)Nc2cccc(-c3cccc(N4CCCC4)n3)c2)cc1` [Compound 10h, 1-(4-Methoxyphenyl)-3-(3-(6-(pyrrolidin-1-yl)pyridin-2-yl)phenyl)urea], in assay [1] (setting [3]), the cAMP % inhibition is reported as 97%. Besides, the concentration for a half-maximal effect (EC50) in assay [1] (setting [4]) was determined as 1230 nM; in assay [2] (setting [5]), 99 nM. Further, the β-arrestin % inhibition in assay [2] (Table 1, CP55,940 as agonist) was found to be 98%.

As to `COc1cccc(NC(=O)Nc2cccc(-c3cccc(N4CCCC4)n3)c2)c1` [Compound 10i, 1-(3-Methoxyphenyl)-3-(3-(6-(pyrrolidin-1-yl)pyridin-2-yl)phenyl)urea], the cAMP % inhibition in assay [1] (setting [3]) was 92%. The EC50 in assay [1] (setting [4]) is 1790 nM; in assay [2] (setting [5]), 497 nM. Also, the β-arrestin % inhibition in assay [2] (Table 1, CP55,940 as agonist) was determined as 109%.

In the case of `Clc1ccc(Nc2nnc(-c3cccc(-c4cccc(N5CCCC5)n4)c3)o2)cc1` [Compound 42, N-(4-Chlorophenyl)-5-(3-(6-(pyrrolidin-1-yl)pyridin-2-yl)phenyl)-1,3,4-oxadiazol-2-amine], the cAMP % inhibition in assay [1] (setting [3]) was found to be 43%. Moreover, the EC50 was > 10000 nM in assay [1] (setting [4]) and 5850 nM in assay [2] (setting [5]). In assay [2] (Table 1, CP55,940 as agonist), the β-arrestin % inhibition came out at 31%.

In the case of `O=C(Nc1cccc(-c2cccc(N3CCCC3)n2)c1)Nc1ccc(Cl)cc1C#CCCO` [Compound 22a, 1-(4-Chloro-2-(4-hydroxybut-1-yn-1-yl)phenyl)-3-(3-(6-(pyrrolidin-1-yl)pyridin-2-yl)phenyl)urea], the cAMP % inhibition in assay [1] (setting [3]) was 49%. For the same molecule, the half-maximal effective concentration (EC50) in assay [1] (setting [4]) was found to be 6490 nM; in assay [2] (setting [5]) it was 4890 nM. For the same molecule, in assay [2] (Table 1, CP55,940 as agonist), the β-arrestin % inhibition stood at 83%.

For the molecule `O=C(Nc1cccc(-c2cccc(N3CCCC3)n2)c1)Nc1ccccc1C(=O)O` [Compound 16, 2-(3-(3-(6-(Pyrrolidin-1-yl)pyridin-2-yl)phenyl)ureido)benzoic acid], the cAMP % inhibition in assay [1] (setting [3]) is 35%. In addition, the EC50 in assay [1] (setting [4]) and in assay [2] (setting [5]) was > 10000 nM each time. The β-arrestin % inhibition in assay [2] (Table 1, CP55,940 as agonist) stood at 1.5%.

Turning to `[N-]=[N+]=Nc1ccc(NC(=O)Nc2cccc(-c3cccc(N4CCCC4)n3)c2)cc1` [GAT331], the EC50 in assay [1] (setting [6]) came out at 297 nM; in assay [2] (setting [8]), 106 nM. Moreover, the Emax is 128% in assay [1] (setting [7]) and 138% in assay [2] (setting [7]).

In the case of `O=C(Nc1ccc(F)cc1)Nc1cccc(-c2cccc(N3CCCC3)n2)c1` [Compound 10t, 1-(4-Fluorophenyl)-3-(3-(6-(pyrrolidin-1-yl)pyridin-2-yl)phenyl)urea], the cAMP % inhibition in assay [1] (setting [3]) was 119%. The EC50 in assay [1] (setting [4]) came to 148 nM; in assay [2] (setting [5]), 7 nM. Further, the β-arrestin % inhibition in assay [2] (Table 1, CP55,940 as agonist) is 108%.

Regarding `O=C(Nc1ccc(C(=O)c2ccccc2)cc1)Nc1cccc(-c2cccc(N3CCCC3)n2)c1` [GAT300], the half-maximal effective concentration (EC50) in assay [1] (setting [6]) amounted to 169 nM; in assay [2] (setting [8]), 28.4 nM. For the same molecule, the results for the Emax in assay [1] (setting [7]) and in assay [2] (setting [7]) were 99.6% and 106%, respectively.

Regarding `O=C(Nc1cccc(-c2cccc(N3CCCC3)n2)c1)NC1CCCCC1` [Compound 10z, 1-Cyclohexyl-3-(3-(6-(pyrrolidin-1-yl)pyridin-2-yl)phenyl)urea], the cAMP % inhibition in assay [1] (setting [3]) is listed as 78%. Moreover, the EC50 in assay [1] (setting [4]) turned out to be 659 nM; in assay [2] (setting [5]), 333 ± 30 nM. Also, in assay [2] (Table 1, CP55,940 as agonist), the β-arrestin % inhibition came to 136%.

As for `O=C(Nc1ccc(Cl)cc1)Nc1cccc(-c2cccc(N3CCNCC3)n2)c1` [Compound 67b, 1-(4-Chlorophenyl)-3-(3-(6-(piperazin-1-yl)pyridin-2-yl)phenyl)urea], in assay [1] (setting [3]), the cAMP % inhibition is 113%. The concentration giving a half-maximal response (EC50) in assay [1] (setting [4]) worked out at 274 nM; in assay [2] (setting [5]), 25 nM. Also, in assay [2] (Table 1, CP55,940 as agonist), the β-arrestin % inhibition amounted to 110%.

Regarding `O=C(Nc1ccccc1)Nc1cccc(-c2cccc(N3CCCC3)n2)c1` [Compound 10q, 1-Phenyl-3-(3-(6-(pyrrolidin-1-yl)pyridin-2-yl)phenyl)urea], the half-maximal effective concentration (EC50) worked out at 501 nM in assay [1] (setting [4]) and 110 nM in assay [2] (setting [5]). Moreover, the β-arrestin % inhibition in assay [2] (Table 1, CP55,940 as agonist) is 135%.

For the molecule `O=C(NCCc1ccc(N2CCCCC2)cc1)c1[nH]c2ccc(Cl)cc2c1CCN=C=S` [GAT209], the EC50 in assay [1] (setting [6]) is > 10000 nM; in assay [2] (setting [8]), 225 nM. Also, the Emax amounted to 0% in assay [1] and 104% in assay [2].

With `O=C(Nc1cccc(-c2cccc(N3CCCC3)n2)c1)Nc1ccc(Cl)cc1C#CCCOC1CCCCO1` (stereo not drawn) [Compound 21a, 1-(4-Chloro-2-(4-((tetrahydro-2H-pyran-2-yl)oxy)but-1-yn-1-yl)phenyl)-3-(3-(6-(pyrrolidin-1-yl)pyridin-2-yl)phenyl)urea], the cAMP % inhibition in assay [1] (setting [3]) is listed as 9%. In addition, the concentration giving a half-maximal response (EC50) was > 10000 nM in assay [1] (setting [4]) and 3400 nM in assay [2] (setting [5]). The β-arrestin % inhibition in assay [2] (Table 1, CP55,940 as agonist) amounted to 73%.

`CCc1ccccc1NC(=O)Nc1cccc(-c2cccc(N3CCCC3)n2)c1` [Compound 10r, 1-(2-Ethylphenyl)-3-(3-(6-(pyrrolidin-1-yl)pyridin-2-yl)phenyl)urea]: in assay [1] (setting [3]), the cAMP % inhibition was 42%. The EC50 was found to be 1190 ± 120 nM in assay [1] (setting [4]) and 3320 nM in assay [2] (setting [5]). For the same molecule, the β-arrestin % inhibition in assay [2] (Table 1, CP55,940 as agonist) stood at 76%.

In the case of `O=C(Nc1cccc(-c2cccc(N3CCCC3)n2)c1)Nc1ccc(Cl)c(I)c1` [Compound 19b, 1-(4-Chloro-3-iodophenyl)-3-(3-(6-(pyrrolidin-1-yl)pyridin-2-yl)phenyl)urea], the cAMP % inhibition in assay [1] (setting [3]) was found to be 30%. Further, the half-maximal effective concentration (EC50) is > 10000 nM in assay [1] (setting [4]) and 126 nM in assay [2] (setting [5]). Further, the β-arrestin % inhibition in assay [2] (Table 1, CP55,940 as agonist) was 120%.

As to `O=C(Nc1cccc(-c2cccc(N3CCCC3)n2)c1)Nc1ccc(Cl)cc1CCCCOC1CCCCO1` (stereo not drawn) [Compound 23a, 1-(4-Chloro-2-(4-((tetrahydro-2H-pyran-2-yl)oxy)butyl)phenyl)-3-(3-(6-(pyrrolidin-1-yl)pyridin-2-yl)phenyl)urea], the cAMP % inhibition in assay [1] (setting [3]) turned out to be 41%. Moreover, the EC50 turned out to be 820 nM in assay [1] (setting [4]) and 1090 nM in assay [2] (setting [5]). Moreover, the β-arrestin % inhibition in assay [2] (Table 1, CP55,940 as agonist) is 117%.

`O=C(Nc1cccc(-c2cccc(N3CCCC3)n2)c1)Nc1ccccc1Cl` [Compound 10d, 1-(2-Chlorophenyl)-3-(3-(6-(pyrrolidin-1-yl)pyridin-2-yl)phenyl)urea]: the cAMP % inhibition in assay [1] (setting [3]) is on record as 39%. In addition, the EC50 in assay [1] (setting [4]) was > 10000 nM; in assay [2] (setting [5]) it was 2170 nM. Moreover, the β-arrestin % inhibition in assay [2] (Table 1, CP55,940 as agonist) amounted to 105%.

For `O=C(Nc1cccc(Cl)c1)Nc1cccc(-c2cccc(N3CCCC3)n2)c1` [Compound 10c, 1-(3-Chlorophenyl)-3-(3-(6-(pyrrolidin-1-yl)pyridin-2-yl)phenyl)urea], the cAMP % inhibition in assay [1] (setting [3]) amounted to 111%. In addition, the results for the EC50 in assay [1] (setting [4]) and in assay [2] (setting [5]) were 782 nM and 260 nM, respectively. Besides, in assay [2] (Table 1, CP55,940 as agonist), the β-arrestin % inhibition worked out at 128%.

Take `O=C(Nc1cccc(-c2cccc(N3CCCC3)n2)c1)Nc1ccc(Cl)c(C#CCCOC2CCCCO2)c1` (stereo not drawn) [Compound 21b, 1-(4-Chloro-3-(4-((tetrahydro-2H-pyran-2-yl)oxy)but-1-yn-1-yl)phenyl)-3-(3-(6-(pyrrolidin-1-yl)pyridin-2-yl)phenyl)urea]: the cAMP % inhibition in assay [1] (setting [3]) worked out at 22%. In addition, the concentration giving a half-maximal response (EC50) in assay [1] (setting [4]) was > 10000 nM; in assay [2] (setting [5]) it was 208 nM. Further, the β-arrestin % inhibition in assay [2] (Table 1, CP55,940 as agonist) is reported as 111%.
